This note sets out measurements from article PMC2678021 (Cancer research, 2009).

One experiment deals with Hck (Homo sapiens, UniProt P08631). As to the kind of experiment: In vitro kinase assay, Hck. Format: biochemical. The note with it: read-out: IC50 Hck, Table 1, triplicate or quadruplicate.
The target in another experiment is Src F278H (Gallus gallus, UniProt P00523, F278H). As to the kind of experiment: In vitro kinase assay, c-Src F278H kinase domain. It counts as biochemical. The note with it: read-out: IC50 Src F278H; Table 2; kinase domain construct.
The next experiment addresses Src E280V (Gallus gallus, UniProt P00523, E280V). As to the kind of experiment: In vitro kinase assay, c-Src E280V kinase domain. The note with it: read-out: IC50 Src E280V; Table 2; kinase domain construct. Format: biochemical.
In another experiment the target is Src F382V (Gallus gallus, UniProt P00523, Y382V). Put plainly: In vitro kinase assay, c-Src 382V kinase domain. Format: biochemical. The note with it: read-out: IC50 Src F382V; Table 2; kinase domain construct.
A further experiment deals with Src T338I (Gallus gallus, UniProt P00523, T338I). Put plainly: In vitro kinase assay, c-Src T338I kinase domain. The note with it: read-out: IC50 Src T338I; Table 2; kinase domain construct. Format: biochemical.
The next experiment relates to parental Ba/F3 cells. Put plainly: Growth of parental Ba/F3 control cells. The note with it: 48 hours, media containing IL-3; up to highest concentration tested (5 μM). It counts as cell-based.
Experiment [1] concerns BCR-ABL-induced phosphorylation of CrkL. As to the kind of experiment: BCR-ABL-induced phosphorylation of CrkL in Ba/F3 cells. Format: cell-based. As to conditions: Ba/F3 cells expressing native and mutant isoforms of BCR-ABL; data not shown.

The structures appear in SMILES notation.

Hck, sequence (P08631 whole entry, species assumed, the tested form may be a part): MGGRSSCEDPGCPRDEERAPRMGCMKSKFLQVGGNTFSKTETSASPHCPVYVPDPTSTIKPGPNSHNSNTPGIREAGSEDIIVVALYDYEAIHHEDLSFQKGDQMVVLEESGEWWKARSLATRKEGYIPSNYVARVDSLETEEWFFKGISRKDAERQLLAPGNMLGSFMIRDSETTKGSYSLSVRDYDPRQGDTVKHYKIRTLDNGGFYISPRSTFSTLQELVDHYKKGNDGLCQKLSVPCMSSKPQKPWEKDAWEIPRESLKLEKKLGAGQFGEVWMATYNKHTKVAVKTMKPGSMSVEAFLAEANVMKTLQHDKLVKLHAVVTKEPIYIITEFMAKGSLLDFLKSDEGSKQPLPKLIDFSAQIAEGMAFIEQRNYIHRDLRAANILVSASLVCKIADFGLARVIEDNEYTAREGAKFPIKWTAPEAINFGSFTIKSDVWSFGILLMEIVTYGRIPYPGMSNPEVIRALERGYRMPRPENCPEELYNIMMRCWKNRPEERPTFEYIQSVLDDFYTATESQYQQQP

By IC50 is commonly meant the point on the concentration scale where inhibition reaches its midpoint. On to `COc1ccc(Nc2ncnc(-c3cccnc3Nc3cc(NC(=O)c4ccc(CN5CCN(C)CC5)cc4)ccc3C)n2)cc1` [DSA8], for which the IC50 on Hck worked out at 6.6 ± 2.3 nM; at Src F278H it was 7 ± 2 nM; on Src E280V, 4 ± 1.2 nM; at Src F382V it was 4.4 ± 1.7 nM; on Src T338I, 18 ± 6 nM. For the same molecule, in the experiment on parental Ba/F3 cells, the “Growth of parental Ba/F3 control cells” value is “minimally affected”. In experiment [1], the “BCR-ABL-induced phosphorylation of CrkL” value is “block”.
